According to patent US8912121B2, “Herbicidal compositions comprising 4-amino-3-chloro-5-fluoro-6-(4-chloro-2-fluoro-3-methoxyphenyl)pyridine-2-carboxylic acid or a derivative thereof and certain PS II inhibitors” (Dow Agrosciences LLC, priority 2012, dated 2014):

Tests used:
[1] = system: SETFA (Setaria faberi, giant foxtail); assay: Pre-emergence soil-applied mixtures, greenhouse; assay type: in vivo, Setaria faberi Herrm.; settings: for Visual Weed Control (%) Obs: 27 DAA
Text: (§1) Seeds or nutlets of the desired test plant species were planted in a soil matrix prepared by mixing a loam soil (32 percent silt, 23 percent clay, and 45 percent sand, with a pH of about 6.5 and an organic matter content of about 1.9 percent) and calcareous grit in an 80 to 20 ratio. The soil matrix was contained in plastic pots with a volume of 1 quart and a surface area of 83.6 square centimeters (cm^2).
(§2) Treatments consisted of the benzyl ester of 4-amino-3-chloro-5-fluoro-6-(4-chloro-2-fluoro-3-methoxy-phenyl)pyridine-2-carboxylic acid (compound A) formulated as an SC (suspension concentrate) and various herbicidal components alone and in combination. Forms of compound A were applied on an acid equivalent basis.
(§3) Other herbicidal components were applied on an acid equivalent or active ingredient basis and included the PSII-inhibiting herbicides, atrazine formulated as Atrazine® 90WDG, metribuzin formulated as Metribuzin 75DF, simazine formulated as Princep Caliber 90, tebuthiuron formulated as Spike 80DF, cyanazine (technical grade material), hexazinone (technical grade material), linuron (technical grade material), terbuthylazine (technical grade material), and diuron formulated as Diuron 4L.
(§4) Treatment requirements were calculated based upon the rates being tested, the concentration of active ingredient or acid equivalent in the formulation, and a 12 mL application volume at a rate of 187 L/ha.
For treatments comprised of formulated compounds, measured amounts of compounds were placed individually in 25 mL glass vials and diluted in a volume of 1.25% (v/v) Agri-Dex® crop oil concentrate (COC) to obtain 12× stock solutions. […] Application solutions were prepared by adding an appropriate amount of each stock solution (e.g., 1 mL) and diluted to the appropriate final concentrations with the addition of 10 mL of an aqueous mixture of 1.25% (v/v) COC so that the final spray solutions contained 1.25% (v/v) COC.
For treatments comprised of technical compounds, weighed amounts can be placed individually in 25 mL glass vials and dissolved in a volume of 97:3 (v/v) acetone/DMSO to obtain 12× stock solutions. […] Application solutions can be prepared by adding an appropriate amount of each stock solution (e.g., 1 mL) and diluted to the appropriate final concentrations with the addition of 10 mL of an aqueous mixture of 1.5% (v/v) COC so that the final spray solutions contain 1.25% (v/v) COC. When technical materials are used, the concentrated stock solutions can be added to the spray solutions so that the final acetone and DMSO concentrations of the application solutions are 16.2% and 0.5%, respectively.
For treatments comprised of formulated and technical compounds, weighed amounts of the technical materials can be placed individually in 25 mL glass vials and dissolved in a volume of 97:3 (v/v) acetone/DMSO to obtain 12× stock solutions, and measured amounts of the formulated compounds can be placed individually in 25 mL glass vials and diluted in a volume of 1.5% (v/v) COC or water to obtain 12× stock solutions. […] Application solutions can be prepared by adding an appropriate amount of each stock solution (e.g., 1 mL) and diluted to the appropriate final concentrations with the addition of an appropriate amount of an aqueous mixture of 1.5% (v/v) COC so that the final spray solutions contain 1.25% (v/v) COC. As required, additional water and/or 97:3 (v/v) acetone/DMSO can be added to individual application solutions so that the final acetone and DMSO concentrations of the application solutions being compared are 8.1% and 0.25%, respectively.
All stock solutions and applications solutions were visually inspected for compound compatibility prior to application. Spray solutions were applied to the soil with an overhead Mandel track sprayer equipped with a 8002E nozzles calibrated to deliver 187 L/ha over an application area of 0.503 m^2 at a spray height of 18 inches (46 cm) above average pot height. […]

[2] = system: ECHCO (Echinochloa colonum, junglerice); assay: Pre-emergence soil-applied mixtures, greenhouse; assay type: in vivo, Echinochloa colonum (L.) Link
Text: as §1, §2, §3, §4
(§5) For treatments comprised of formulated compounds, measured amounts of compounds were placed individually in 25 mL glass vials and diluted in a volume of 1.25% (v/v) Agri-Dex® crop oil concentrate (COC) to obtain 12× stock solutions. […]
(§6) For treatments comprised of formulated and technical compounds, weighed amounts of the technical materials can be placed individually in 25 mL glass vials and dissolved in a volume of 97:3 (v/v) acetone/DMSO to obtain 12× stock solutions, and measured amounts of the formulated compounds can be placed individually in 25 mL glass vials and diluted in a volume of 1.5% (v/v) COC or water to obtain 12× stock solutions. […]

[3] = system: SETVI (Setaria viridis, green foxtail); assay: Pre-emergence soil-applied mixtures, greenhouse; assay type: in vivo, Setaria viridis (L.) Beauv.
Text: as §1, §2, §3, §4, §5, §6

[4] = system: KCHSC (Kochia scoparia, kochia); assay: Postemergence herbicidal activity of mixtures in cereal crops, greenhouse; assay type: in vivo, Kochia scoparia (L.) Schrad.
Method: Seeds of the desired test plant species were planted in Sun Gro MetroMix® 306 planting mixture, which typically has a pH of 6.0 to 6.8 and an organic matter content of about 30 percent, in plastic pots with a surface area of 103.2 square centimeters (cm^2). When required to ensure good germination and healthy plants, a fungicide treatment and/or other chemical or physical treatment was applied. The plants were grown for 7-36 days in a greenhouse with an approximate 14 hour photoperiod which was maintained at about 18° C. during the day and about 17° C. during the night. Nutrients and water were added on a regular basis and supplemental lighting was provided with overhead metal halide 1000-Watt lamps as necessary. The plants were employed for testing when they reached the second or third true leaf stage.
Treatments consisted of the benzyl ester of 4-amino-3-chloro-5-fluoro-6-(4-chloro-2-fluoro-3-methoxy-phenyl)pyridine-2-carboxylic acid (Compound A), formulated as an SC, a second cereal herbicide alone and then both in combination.
Other herbicidal components were applied on an active ingredient basis and included PSII-inhibiting herbicides.
Measured aliquots of benzyl ester of 4-amino-3-chloro-5-fluoro-6-(4-chloro-2-fluoro-3-methoxy-phenyl)pyridine-2-carboxylic acid (Compound A) were placed in 25 milliliter (mL) glass vials and diluted in a volume of 1.25% (v/v) Agri-Dex® crop oil concentrate to obtain stock solutions. Compound requirements are based upon a 12 mL application volume at a rate of 187 liters per hectare (L/ha). Spray solutions of the second cereal herbicide and experimental compound mixtures were prepared by adding the stock solutions to the appropriate amount of dilution solution to form 12 mL spray solution with active ingredients in two- and three-way combinations. Formulated compounds were applied to the plant material with an overhead Mandel track sprayer equipped with an 8002E nozzle calibrated to deliver 187 L/ha over an application area of 0.503 square meters (m^2) at a spray height of 18 inches (46 cm) above average plant canopy. Control plants were sprayed in the same manner with the solvent blank.
The treated plants and control plants were placed in a greenhouse as described above and watered by sub-irrigation to prevent wash-off of the test compounds. After 20-22 days, the condition of the test plants as compared with that of the control plants was determined visually and scored on a scale of 0 to 100 percent where 0 corresponds to no injury and 100 corresponds to complete kill.
Colby's equation was used to determine the herbicidal effects expected from the mixtures (Colby, S. R. 1967. Calculation of the synergistic and antagonistic response of herbicide combinations. Weeds 15:20-22).
The following equation was used to calculate the expected activity of mixtures containing two active ingredients, A and B: Expected=A+B−(A×B/100)

[5] = Compound A Benzyl Ester 16 g ae/ha
[6] = Compound A Benzyl Ester 32 g ae/ha

COc1c(Cl)ccc(-c2nc(C(=O)OCc3ccccc3)c(Cl)c(N)c2F)c1F [Compound A Benzyl Ester, benzyl ester of 4-amino-3-chloro-5-fluoro-6-(4-chloro-2-fluoro-3-methoxy-phenyl)pyridine-2-carboxylic acid]
Visual Weed Control (%) Obs ([1]; 16 g ae/ha): 8% | Visual Weed Control (%) Obs ([1]; 32 g ae/ha): 15% | Visual Weed Control (%)-29 DAA SETFA Obs [1, 5]: 0% | Visual Weed Control (%)-29 DAA SETFA Obs [1, 6]: 0% | Visual Weed Control (%)-29 DAA ECHCO Obs [2, 5]: 0% | Visual Weed Control (%)-29 DAA ECHCO Obs [2, 6]: 5% | Visual Weed Control (%)-29 DAA SETVI Obs [3, 5]: 10% | Visual Weed Control (%)-29 DAA SETVI Obs [3, 6]: 10% | Visual Weed Control (%)-21 DAA KCHSC Obs ([4]; Compound A Benzyl Ester 2.5 g ai/ha): 20% | Visual Weed Control (%)-21 DAA KCHSC Obs ([4]; Compound A Benzyl Ester 5 g ai/ha): 41% | Visual Weed Control (%)-21 DAA KCHSC Obs ([4]; Compound A Benzyl Ester 10 g ai/ha): 62%
